# According to PMC8162404, “Proteomimetic surface fragments distinguish targets by function” (Chemical Science, 2020):
# Assays:
# CaM [1] = target: T1, CaM (Bos taurus, UniProt P62157); test: Pull-down assay with immobilized protein and LSM libraries; format: binding, bovine; conditions: H14 library; 1:2 stoichiometry assumed; read-out: Surface mapping KD (apparent)
# T1 construct: made in house; host or cells: E. coli BL21 (DE3)
# Procedure, shortened: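 CaM buffer was 20 mM HEPES pH 7.4, 150 mM NaCl, 5 mM CaCl2. LSM sublibrary members ([…]) incubated 30 min, RT, with equimolar His-tagged protein on Co-NTA resin. HPLC-MS measured unbound probes; bound fraction relative to resin-only background gave dissociation constants.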
# CaM [2] = target: T1, CaM; test: Competition pull-down with native ligand TRPV1-Ct15; format: binding, bovine; conditions: H14 library; competitor peptide 200 µM; read-out: Surface mapping KD (apparent), competition
# S100B = target: T2, S100B (Homo sapiens, UniProt P04271); test: Pull-down assay with immobilized protein and LSM libraries; format: binding; conditions: H14 library; 1:1 binding assumed; read-out: Surface mapping KD (apparent)
# T2 construct: made in house; host or cells: Escherichia coli BL21(DE3)
# T2 sequence (P04271 1-92): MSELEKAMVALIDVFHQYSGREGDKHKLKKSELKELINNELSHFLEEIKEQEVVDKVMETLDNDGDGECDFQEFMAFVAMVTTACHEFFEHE
# Procedure, shortened: (§1)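 Buffers were HEPES pH 7.4 with 150 mM NaCl, plus 1 mM TCEP and 1 mM CaCl2 (50 mM HEPES) for S100A4 and S100B, 1 mM TCEP for Gal-1, and no additive for RecQ-WH. Immobilized protein at 64 µM was equilibrated 30 min with the LSM sublibrary, and unbound probes were measured by LC-MS.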
# S100A4 = target: T3, S100A4 (Homo sapiens, UniProt P26447); test: as above; format: binding; conditions: H14 library; 1:1 binding assumed; read-out: Surface mapping KD (apparent)
# T3 construct: made in house; host or cells: Escherichia coli BL21(DE3)
# T3 sequence (P26447 whole entry): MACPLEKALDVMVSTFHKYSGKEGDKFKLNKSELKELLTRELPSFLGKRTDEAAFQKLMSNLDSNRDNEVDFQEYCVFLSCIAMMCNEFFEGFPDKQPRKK
# Procedure, shortened: as §1
# Gal-1 [3] = target: T4, Gal-1 (Homo sapiens, UniProt P09382); test: Competition pull-down with lactose; format: binding; conditions: H14 library; lactose 10 mM; read-out: Surface mapping KD (apparent), competition
# T4 construct: made in house; host or cells: E. coli BL21(DE3)
# T4 sequence (P09382 whole entry): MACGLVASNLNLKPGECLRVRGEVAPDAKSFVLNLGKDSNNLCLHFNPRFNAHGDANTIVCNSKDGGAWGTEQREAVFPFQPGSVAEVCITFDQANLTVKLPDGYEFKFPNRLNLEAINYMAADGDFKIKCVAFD
# Procedure, shortened: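 His6-tagged proteins immobilized on Co-NTA resin at 64 µM final with 64-member LSM foldamer sublibraries (1 M each, as printed) in pH 7.4 HEPES/NaCl buffers (Ca2+/TCEP per target), 30 min RT; competitor peptides 200 µM final, lactose 10 mM for Gal-1. Bound fractions from LC-MS loss vs protein-free resin; KD assuming 1:1 binding.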
# Gal-1 [4] = target: T4, Gal-1; test: Pull-down assay with immobilized protein and LSM libraries; format: binding; conditions: H14 library; 1:1 binding assumed; read-out: Surface mapping KD (apparent)
# Procedure, shortened: as §1
SMILES,Kd (CaM [1]) [µM],Kd (CaM [2]) [µM],Kd (S100B) [µM],Kd (S100A4) [µM],Kd (Gal-1 [3]) [µM],Kd (Gal-1 [4]) [µM]
CC(C)[C@@H](CC(=O)N[C@H]1CCCC[C@@H]1C(N)=O)NC(=O)[C@H]1CCCC[C@@H]1NC(=O)[C@H]1CCCC[C@@H]1NC(=O)C[C@H](CCCNC(=N)N)NC(=O)[C@H]1CCCC[C@@H]1N [H14 RV],26,219,63,72,418,–
CC(C)[C@@H](CC(=O)N[C@H]1CCCC[C@@H]1C(N)=O)NC(=O)[C@H]1CCCC[C@@H]1NC(=O)[C@H]1CCCC[C@@H]1NC(=O)C[C@H](CO)NC(=O)[C@H]1CCCC[C@@H]1N [H14 SV],101,398,–,34,476,221
CC[C@H](C)[C@@H](CC(=O)N[C@H]1CCCC[C@@H]1C(N)=O)NC(=O)[C@H]1CCCC[C@@H]1NC(=O)[C@H]1CCCC[C@@H]1NC(=O)C[C@H](CCC(N)=O)NC(=O)[C@H]1CCCC[C@@H]1N [H14 QI],82,241,–,256,486,456
N=C(N)NCCC[C@@H](CC(=O)N[C@H]1CCCC[C@@H]1C(N)=O)NC(=O)[C@H]1CCCC[C@@H]1NC(=O)[C@H]1CCCC[C@@H]1NC(=O)C[C@H](CC(N)=O)NC(=O)[C@H]1CCCC[C@@H]1N [H14 NR],58,434,128,–,247,114
CC[C@H](C)[C@@H](CC(=O)N[C@H]1CCCC[C@@H]1C(N)=O)NC(=O)[C@H]1CCCC[C@@H]1NC(=O)[C@H]1CCCC[C@@H]1NC(=O)C[C@H](CC(N)=O)NC(=O)[C@H]1CCCC[C@@H]1N [H14 NI],80,283,–,472,323,258
NCCCC[C@@H](CC(=O)N[C@H]1CCCC[C@@H]1C(N)=O)NC(=O)[C@H]1CCCC[C@@H]1NC(=O)[C@H]1CCCC[C@@H]1NC(=O)C[C@H](CCC(N)=O)NC(=O)[C@H]1CCCC[C@@H]1N [H14 QK],96,208,81,382,146,158
C[C@@H](O)[C@@H](CC(=O)N[C@H]1CCCC[C@@H]1C(N)=O)NC(=O)[C@H]1CCCC[C@@H]1NC(=O)[C@H]1CCCC[C@@H]1NC(=O)C[C@H](CO)NC(=O)[C@H]1CCCC[C@@H]1N [H14 ST],215,307,–,323,413,–
CC(C)C[C@@H](CC(=O)N[C@H]1CCCC[C@@H]1C(N)=O)NC(=O)[C@H]1CCCC[C@@H]1NC(=O)[C@H]1CCCC[C@@H]1NC(=O)C[C@H](CC(N)=O)NC(=O)[C@H]1CCCC[C@@H]1N [H14 NL],76,345,–,472,338,259
CC[C@H](C)[C@@H](CC(=O)N[C@H]1CCCC[C@@H]1C(N)=O)NC(=O)[C@H]1CCCC[C@@H]1NC(=O)[C@H]1CCCC[C@@H]1NC(=O)C[C@H](CO)NC(=O)[C@H]1CCCC[C@@H]1N [H14 SI],75,471,380,19,478,336
CSCC[C@@H](CC(=O)N[C@H]1CCCC[C@@H]1C(N)=O)NC(=O)[C@H]1CCCC[C@@H]1NC(=O)[C@H]1CCCC[C@@H]1NC(=O)C[C@H](CO)NC(=O)[C@H]1CCCC[C@@H]1N [H14 SM],43,210,–,26,352,356
N=C(N)NCCC[C@@H](CC(=O)N[C@H]1CCCC[C@@H]1C(N)=O)NC(=O)[C@H]1CCCC[C@@H]1NC(=O)[C@H]1CCCC[C@@H]1NC(=O)C[C@H](CCC(N)=O)NC(=O)[C@H]1CCCC[C@@H]1N [H14 QR],43,291,107,344,272,71
CC(C)C[C@@H](CC(=O)N[C@H]1CCCC[C@@H]1C(N)=O)NC(=O)[C@H]1CCCC[C@@H]1NC(=O)[C@H]1CCCC[C@@H]1NC(=O)C[C@H](CCC(N)=O)NC(=O)[C@H]1CCCC[C@@H]1N [H14 QL],87,241,–,256,458,457
C[C@@H](O)[C@@H](CC(=O)N[C@H]1CCCC[C@@H]1C(=O)N[C@H]1CCCC[C@@H]1C(=O)N[C@@H](CC(=O)O)CC(=O)N[C@H]1CCCC[C@@H]1C(N)=O)NC(=O)[C@H]1CCCC[C@@H]1N [H14 TD],314,232,–,–,415,326
C[C@@H](O)[C@@H](CC(=O)N[C@H]1CCCC[C@@H]1C(=O)N[C@H]1CCCC[C@@H]1C(=O)N[C@H](CC(=O)N[C@H]1CCCC[C@@H]1C(N)=O)Cc1ccc(O)cc1)NC(=O)[C@H]1CCCC[C@@H]1N [H14 TY],84,226,180,–,338,297
C[C@@H](O)[C@@H](CC(=O)N[C@H]1CCCC[C@@H]1C(N)=O)NC(=O)[C@H]1CCCC[C@@H]1NC(=O)[C@H]1CCCC[C@@H]1NC(=O)C[C@@H](NC(=O)[C@H]1CCCC[C@@H]1N)[C@@H](C)O [H14 TT],253,416,–,–,431,366
NC(=O)C[C@@H](CC(=O)N[C@H]1CCCC[C@@H]1C(=O)N[C@H]1CCCC[C@@H]1C(=O)N[C@H](CC(=O)N[C@H]1CCCC[C@@H]1C(N)=O)Cc1ccccc1)NC(=O)[C@H]1CCCC[C@@H]1N [H14 NF],45,339,123,–,250,264
CSCC[C@@H](CC(=O)N[C@H]1CCCC[C@@H]1C(N)=O)NC(=O)[C@H]1CCCC[C@@H]1NC(=O)[C@H]1CCCC[C@@H]1NC(=O)C[C@H](CCC(N)=O)NC(=O)[C@H]1CCCC[C@@H]1N [H14 QM],51,317,–,448,406,364
NCCCC[C@@H](CC(=O)N[C@H]1CCCC[C@@H]1C(N)=O)NC(=O)[C@H]1CCCC[C@@H]1NC(=O)[C@H]1CCCC[C@@H]1NC(=O)C[C@H](CC(N)=O)NC(=O)[C@H]1CCCC[C@@H]1N [H14 NK],82,254,270,–,342,–
C[C@@H](CC(=O)N[C@H]1CCCC[C@@H]1C(N)=O)NC(=O)[C@H]1CCCC[C@@H]1NC(=O)[C@H]1CCCC[C@@H]1NC(=O)C[C@H](CCC(N)=O)NC(=O)[C@H]1CCCC[C@@H]1N [H14 QA],174,211,–,–,444,349
C[C@@H](CC(=O)N[C@H]1CCCC[C@@H]1C(N)=O)NC(=O)[C@H]1CCCC[C@@H]1NC(=O)[C@H]1CCCC[C@@H]1NC(=O)C[C@@H](NC(=O)[C@H]1CCCC[C@@H]1N)[C@@H](C)O [H14 TA],244,398,–,338,426,425
CC(C)[C@@H](CC(=O)N[C@H]1CCCC[C@@H]1C(N)=O)NC(=O)[C@H]1CCCC[C@@H]1NC(=O)[C@H]1CCCC[C@@H]1NC(=O)C[C@H](CC(N)=O)NC(=O)[C@H]1CCCC[C@@H]1N [H14 NV],115,261,–,395,378,349
NC(=O)C[C@@H](CC(=O)N[C@H]1CCCC[C@@H]1C(=O)N[C@H]1CCCC[C@@H]1C(=O)N[C@H](CC(=O)N[C@H]1CCCC[C@@H]1C(N)=O)Cc1c[nH]c2ccccc12)NC(=O)[C@H]1CCCC[C@@H]1N [H14 NW],38,269,98,–,185,169
